From patent publication US8147838B2, “Peptide” (priority 2005, dated 2012)
No end group written: not given here.

Target: MHC class I allele A*0101 (A1) (Homo sapiens, UniProt P04439, A114D/A174V/A182V/D101N/D185E/E176A/E190D/L180R/Q94H/R68K/S129P/T187R/V100A/V91M/W191G)
Experiment: iScore multi-parametric analysis, A*0101
Format: binding
Details: level of binding: >0.5, 0.25-0.5, <0.25
Protocol: (§1) Finally, multiparametric analysis is performed on the results from these assays and an iScore is generated. The iScore represents a measure of the overall quality of peptide-MHC binding, enabling candidate peptides to be ranked in order of binding quality and allowing rational prioritisation of peptides for functional cellular follow-up studies.
(§2) As part of the validation of the iTopia system, a panel of overlapping peptides derived from the CMV pp 65 protein were used and their binding properties for the A*0201 allele analysed. A number of T cell epitopes restricted by HLA A*0201 had already been identified (by more conventional methodologies) by other researchers for this protein. In the iTopia study, it was reported that an iScore of: >0.5 represented “good quality binding”; between 0.25 and 0.5 represented “medium quality binding”; and <0.25 represented “poor quality binding”. Six of the 20 peptides which gave a “good” iScore (>0.5) for A*0201, represented previously characterised CMV pp 65 A*0201 epitopes.
(§3) Each MHC class I allele has different binding properties and affinities for peptides which they bind. Therefore, information obtained with HLA A*0201 in which peptides are ranked as good, medium or poor binders using >0.5, 0.25-0.5 and <0.25 as thresholds is not necessarily transferable between alleles. Also, different proteins are likely to have distinct immunogenic profiles and the affinities between peptides and MHC class I molecules will be different between proteins. This may be particularly relevant in the case of self-antigens where immunogenicity is likely to be lower than in foreign proteins.
(§4) Multi-parametric analysis permits the integration of half-life and ED50 parameters in an integrated iScore. This reflects the capability of a peptide to reconstitute with MHC molecules in a stable complex, defining its overall level of binding i.e. the iScore value represents the overall quality of peptide-MHC binding and is used to rank candidate peptides as an indicator of functional relevance. The lead candidate epitopes for each allele are selected for cellular functional analysis to confirm their biological relevance.
(§5) The changes in gradient of the graphs in FIGS. 7 to 10 are indicated by a line which delineates the populations of iScores forming the basis of discrimination for further functional studies.

Row | Sequence | iScore, MHC Class I Molecule A*0101
1 | IKKWMHNIR [Peptide 191] | 0
2 | ILNHIVPPE [Peptide 90] | 0
3 | ILPPSLQTS [Peptide 174] | 0
4 | KVLHNGTLA [Peptide 136] | 0
5 | KWMHNIRDA [Peptide 192] | 0
6 | LAELAALNL [Peptide 59] | 0
7 | LALIGAIFL [Peptide 182] | 0
8 | LALVLLGWV [Peptide 11] | 0
9 | LAVLPAGAF [Peptide 52] | 0
10 | LDLSHNPLA [Peptide 74] | 0
11 | LDLSNNSLV [Peptide 120] | 0
12 | LEDNALKVL [Peptide 133] | 0
13 | LELASNHFL [Peptide 108] | 0
14 | LHNGTLAEL [Peptide 137] | 0
15 | LLAGRALQG [Peptide 102] | 0
16 | LLGWVSSSS [Peptide 13] | 0
17 | LPRDVLAQL [Peptide 113] | 0
18 | LQGLPHIRV [Peptide 141] | 0
19 | LQGLRRLEL [Peptide 105] | 0
20 | LSGSRLDEV [Peptide 63] | 0

Target: MHC class I allele A*0201 (A2) (Homo sapiens, UniProt P04439, D140Y/D185E/D98H/E176V/E277Q/G131W/G231S/I119V/I121R/I166T/I218V/L300P/L318F/N151K/N90K/P208A/P217A/Q86G/Q94H/R138H/R169H/T345S)
Experiment: iScore multi-parametric analysis, A*0201
Format: binding
Details: level of binding: >0.5, 0.25-0.5, <0.25
Protocol: as §1, §2, §3, §4, §5

Row | Sequence | iScore, MHC Class I Molecule A*0201
21 | IKKWMHNIR [Peptide 191] | 0.181
22 | ILNHIVPPE [Peptide 90] | 0.426
23 | ILPPSLQTS [Peptide 174] | 0.523
24 | KVLHNGTLA [Peptide 136] | 0.15
25 | KWMHNIRDA [Peptide 192] | 0.045
26 | LAELAALNL [Peptide 59] | 0.72
27 | LALIGAIFL [Peptide 182] | 0.425
28 | LALVLLGWV [Peptide 11] | 0.237
29 | LAVLPAGAF [Peptide 52] | 0.074
30 | LDLSHNPLA [Peptide 74] | 0.226
31 | LDLSNNSLV [Peptide 120] | 0.158
32 | LEDNALKVL [Peptide 133] | 0.122
33 | LELASNHFL [Peptide 108] | 0.151
34 | LHNGTLAEL [Peptide 137] | 0.187
35 | LLAGRALQG [Peptide 102] | 0.176
36 | LLGWVSSSS [Peptide 13] | 0.243
37 | LPRDVLAQL [Peptide 113] | 0
38 | LQGLPHIRV [Peptide 141] | 0.2
39 | LQGLRRLEL [Peptide 105] | 0.114
40 | LSGSRLDEV [Peptide 63] | 0.075

Target: MHC class I allele A*0301 (A3) (Homo sapiens, UniProt P04439)
Experiment: iScore multi-parametric analysis, A*0301
Format: binding
Details: level of binding: >0.5, 0.25-0.5, <0.25
Protocol: as §1, §2, §3, §4, §5

Row | Sequence | iScore, MHC Class I Molecule A*0301
41 | IKKWMHNIR [Peptide 191] | 0
42 | ILNHIVPPE [Peptide 90] | 0
43 | ILPPSLQTS [Peptide 174] | 0
44 | KVLHNGTLA [Peptide 136] | 0
45 | KWMHNIRDA [Peptide 192] | 0
46 | LAELAALNL [Peptide 59] | 0
47 | LALIGAIFL [Peptide 182] | 0
48 | LALVLLGWV [Peptide 11] | 0
49 | LAVLPAGAF [Peptide 52] | 0
50 | LDLSHNPLA [Peptide 74] | 0
51 | LDLSNNSLV [Peptide 120] | 0
52 | LEDNALKVL [Peptide 133] | 0
53 | LELASNHFL [Peptide 108] | 0
54 | LHNGTLAEL [Peptide 137] | 0
55 | LLAGRALQG [Peptide 102] | 0
56 | LLGWVSSSS [Peptide 13] | 0
57 | LPRDVLAQL [Peptide 113] | 0
58 | LQGLPHIRV [Peptide 141] | 0
59 | LQGLRRLEL [Peptide 105] | 0
60 | LSGSRLDEV [Peptide 63] | 0

Target: MHC class I allele B*0702 (B7) (Homo sapiens, UniProt P01889)
Experiment: iScore multi-parametric analysis, B*0702
Details: level of binding: >0.5, 0.25-0.5, <0.25
Protocol: as §1
As part of the validation of the iTopia system, a panel of overlapping peptides derived from the CMV pp 65 protein were used and their binding properties for the A*0201 allele analysed. A number of T cell epitopes restricted by HLA A*0201 had already been identified (by more conventional methodologies) by other researchers for this protein. In the iTopia study, it was reported that an iScore of: >0.5 represented “good quality binding”; between 0.25 and 0.5 represented “medium quality binding”; and <0.25 represented “poor quality binding”.
as §4

Row | Sequence | iScore, MHC Class I Molecule B*0702
61 | IKKWMHNIR [Peptide 191] | 0
62 | ILNHIVPPE [Peptide 90] | 0
63 | ILPPSLQTS [Peptide 174] | 0
64 | KVLHNGTLA [Peptide 136] | 0
65 | KWMHNIRDA [Peptide 192] | 0
66 | LAELAALNL [Peptide 59] | 0.074
67 | LALIGAIFL [Peptide 182] | 0.067
68 | LALVLLGWV [Peptide 11] | 0
69 | LAVLPAGAF [Peptide 52] | 0.049
70 | LDLSHNPLA [Peptide 74] | 0
71 | LDLSNNSLV [Peptide 120] | 0
72 | LEDNALKVL [Peptide 133] | 0
73 | LELASNHFL [Peptide 108] | 0
74 | LHNGTLAEL [Peptide 137] | 0.026
75 | LLAGRALQG [Peptide 102] | 0
76 | LLGWVSSSS [Peptide 13] | 0
77 | LPRDVLAQL [Peptide 113] | 0.305
78 | LQGLPHIRV [Peptide 141] | 0
79 | LQGLRRLEL [Peptide 105] | 0.119
80 | LSGSRLDEV [Peptide 63] | 0.107
